{
  "source": "patent US20240389600A1",
  "about": "(The United States of America, as represented by the …, priority 2023, published 2024)",
  "key": {"[1]": {"test_system": "Georgia-06G peanut seeds", "conditions": "3% H2O2 replaced every 24 h, seed to liquid 1:8 w/v, 20° C., 72 h, Georgia-06G (2021 harvest)"}, "[2]": {"test_system": "Georgia-06G peanut seeds", "conditions": "20° C."}, "[3]": {"test_system": "Georgia-06G peanut seeds", "experiment": "Static incubation of hydrated peanut seeds with H2O2; resveratrol content by HPLC", "conditions": "for resveratrol content in seeds: 48 and 72-h incubation"}},
  "note": "Read-outs that look alike come from different tables or passages of the source.",
  "data": [
    {"smiles": "OO", "note": "[H2O2, hydrogen peroxide]", "values": [
      {"measurement": "resveratrol concentration", "setting": "[1]", "value": 600, "unit": "µg/g"},
      {"measurement": "resveratrol accumulation", "setting": "[2]; 2% H2O2, in-shaker, after 72 h, Georgia-06G 2021", "value": "exceeding 300 μg/g of seed dry weight"},
      {"measurement": "resveratrol concentration", "setting": "[2]; 3% H2O2 replaced every 24 h, seed to liquid 1:4 w/v, shaker, 72 h, Georgia-06G (2021 harvest)", "value": 400, "unit": "µg/g"},
      {"measurement": "concentration of resveratrol in seed extract chromatogram", "setting": "[2]; 3 portions of 3% H2O2 (new charge every 24 h), shaker, 72 h, Georgia-06G 2021", "value": "334 μg/g of dry weight"},
      {"measurement": "resveratrol content in seeds", "setting": "[3]; 2% H2O2, 20° C., Georgia-06G (2021 harvest), FIG. 13", "value": "100 to 200", "unit": "µg/g"},
      {"measurement": "resveratrol production under moderate acidic conditions", "setting": "[3]; 2% H2O2, 20° C., static, acidic conditions, Georgia-06G 2020 harvest", "value": "almost completely blocked resveratrol production"},
      {"measurement": "levels of resveratrol in seeds", "setting": "[3]; 3% H2O2, static, 15° C., after 72 and 96 h, Georgia-06G (2021 harvest)", "value": "20 to 50", "unit": "µg/g"},
      {"measurement": "resveratrol content in seeds", "setting": "[3]; static, 20° C., Georgia-06G (2021 harvest), FIG. 11C", "value": "50 to 100", "unit": "µg/g"},
      {"measurement": "concentration of H2O2 that damages seeds (overall production of resveratrol drops, particularly after 72 h)", "setting": "[3]; static, 20° C., seeds to H2O2 1:6 w/v, Georgia-06G 2021", "value": "above 4%"}
    ]}
  ]
}
